Measured values as given in ChEMBL document CHEMBL1126999, “Anticonvulsant sugar sulfamates. Potent cyclic sulfate and cyclic sulfite analogues of topiramate” (Bioorg Med Chem Lett, 1993).

Tests used:
Mus musculus [1] = test: Tested for anticonvulsant activity against mice at 4 hr at a peroral dose of 3 mg/Kg by maximal electroshock seizure (MES) test; format: functional
Mus musculus [2] = test: Tested for anticonvulsant activity against mice at 4 hr at a peroral dose of 35 mg/Kg by maximal electroshock seizure (MES) test; format: functional
Mus musculus [3] = test: Tested for effective dose required to produce anticonvulsant activity against mice at 4 hr (po); format: functional
Mus musculus [4] = test: Tested for anticonvulsant activity against mice at 4 hr at a peroral dose of 10 mg/Kg by maximal electroshock seizure (MES) test; format: functional
Mus musculus [5] = test: Tested for anticonvulsant activity against mice at 4 hr at a peroral dose of 200 mg/Kg by maximal electroshock seizure (MES) test; format: functional
Mus musculus [6] = test: Tested for anticonvulsant activity against mice at 4 hr at a peroral dose of 75 mg/Kg by maximal electroshock seizure (MES) test; format: functional
Mus musculus [7] = test: Tested for anticonvulsant activity against mice at 4 hr at a peroral dose of 1 mg/Kg by maximal electroshock seizure (MES) test; format: functional
Mus musculus [8] = test: Tested for anticonvulsant activity against mice at 4 hr at a peroral dose of 300 mg/Kg by maximal electroshock seizure (MES) test; format: functional
Mus musculus [9] = test: Tested for anticonvulsant activity against mice at 4 hr at a peroral dose of 60 mg/Kg by maximal electroshock seizure (MES) test; format: functional
Mus musculus [10] = test: Tested for effective dose required to produce anticonvulsant activity against mice at 16 hr (po); format: functional
[11] = Therapeutic index relative to neurotoxicity ([…]) was determined in the rotarod test.
[12] = Mus musculus, po, 4 h, read-out: ED50

SMILES	ED50 (Mus musculus [3]; [12]) [mg/kg]	Block (Mus musculus [4]) [%]	Block (Mus musculus [6]) [%]	other results
CCNS(=O)(=O)OC[C@@]12OC[C@H]3OS(=O)(=O)O[C@H]3[C@@H]1OC(C)(C)O2	14.4	–	–	Block (Mus musculus [1]): 0%; Block (Mus musculus [2]): 100%
CNS(=O)(=O)OC[C@@]12OC[C@H]3OS(=O)(=O)O[C@H]3[C@@H]1OC(C)(C)O2	7.4	100	–	–
CNS(=O)(=O)OC[C@@]12OC[C@H]3OC(C)(C)O[C@H]3[C@@H]1OC(C)(C)O2	–	–	60	Block (Mus musculus [5]): 100%
CC1(C)O[C@H]2[C@@H]3OS(=O)O[C@@H]3CO[C@@]2(COS(N)(=O)=O)O1 (stereo in doubt; 3a)	6.3	70	–	–
O=C1NC(=O)C(c2ccccc2)(c2ccccc2)N1 [PHENYTOIN]	6.4	–	–	–
CN(C)S(=O)(=O)OC[C@@]12OC[C@H]3OS(=O)(=O)O[C@H]3[C@@H]1OC(C)(C)O2	6.9	70	–	Block (Mus musculus [2]): 100%
CC1(C)O[C@H]2[C@@H]3OS(=O)(=O)O[C@@H]3CO[C@@]2(COS(=O)(=O)NC2CCC2)O1	–	90	–	Block (Mus musculus [7]): 0%
CC1(C)O[C@H]2[C@@H]3OS(=O)(=O)O[C@@H]3CO[C@@]2(COS(=O)(=O)NCC(F)(F)F)O1	–	40	90	–
CC1(C)O[C@H]2[C@@H]3OS(=O)(=O)O[C@@H]3CO[C@@]2(COS(=O)(=O)NCc2ccccc2)O1	–	0	100	–
CN(C)S(=O)(=O)OC[C@@]12OC[C@H]3OC(C)(C)O[C@H]3[C@@H]1OC(C)(C)O2	–	–	0	Block (Mus musculus [5]): 80%
CC1(C)O[C@H]2[C@@H]3OS(=O)(=O)O[C@@H]3CO[C@@]2(COS(=O)(=O)NC2CC2)O1	7.3	90	–	Block (Mus musculus [7]): 0%
C=CCNS(=O)(=O)OC[C@@]12OC[C@H]3OS(=O)(=O)O[C@H]3[C@@H]1OC(C)(C)O2	–	70	–	Block (Mus musculus [7]): 0%
CC1(C)O[C@H]2[C@@H]3OS(=O)(=O)O[C@@H]3CO[C@@]2(COS(=O)(=O)Nc2ccccc2)O1	–	–	0	Block (Mus musculus [8]): 0%
CC1(C)O[C@@H]2[C@@H](CO[C@@]3(COS(N)(=O)=O)OC(C)(C)O[C@@H]23)O1 [TOPIRAMATE]	–	–	–	Block (Mus musculus [9]): 60%; ED50 (Mus musculus [10]): 720 mg/kg; ED50 (Mus musculus [3]): 53.5 mg/kg
CCN(CC)S(=O)(=O)OC[C@@]12OC[C@H]3OS(=O)(=O)O[C@H]3[C@@H]1OC(C)(C)O2	–	10	100	–
CC1(C)O[C@H]2[C@@H]3OS(=O)O[C@@H]3CO[C@@]2(COS(N)(=O)=O)O1 (stereo in doubt; 3b)	–	–	–	ED50 (Mus musculus [3]): 6.5 mg/kg
CCCCNS(=O)(=O)OC[C@@]12OC[C@H]3OS(=O)(=O)O[C@H]3[C@@H]1OC(C)(C)O2	–	30	–	Block (Mus musculus [2]): 100%
CC1(C)O[C@H]2[C@@H]3OS(=O)(=O)O[C@@H]3CO[C@@]2(COS(N)(=O)=O)O1	6.3	80	–	ED50 (Mus musculus [10]): 41.5 mg/kg; selectivity ratio [11]: > 150
CC1(C)O[C@H]2[C@@H]3OS(=O)(=O)O[C@@H]3CO[C@@]2(COS(=O)(=O)NC2CCCCCCC2)O1	–	0	30	–
CCCCCCCCNS(=O)(=O)OC[C@@]12OC[C@H]3OS(=O)(=O)O[C@H]3[C@@H]1OC(C)(C)O2	–	0	100	–
